Results reported in patent publication US10821115B2, “Compounds that inhibit Mcl-1 protein” (priority 2017, dated 2020).
Like-named read-outs stand apart in the source and are kept apart here.

Key:
[1] = tested on: human multiple myeloma cell line, OPM-2; test: Cell viability assay (OPM-2 10 FBS), CellTiter-Glo; format: cell-based
How it was run: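 IC50 values come from 4-parameter logistic fits of luminescence signals reflecting cell viability. Treatment lasted 16 h at 37 °C in complete medium with 10% FBS, starting from 3000 cells/well.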

[2] = target: recombinant human Mcl-1 (residues 171-327) / Bim interaction (Homo sapiens (Human), UniProt Q07820); test: biochemical; format: binding; settings: read-out: Mcl-1 HTRF IC50
Sequence of recombinant human Mcl-1 (residues 171-327) / Bim interaction (Q07820 171-327): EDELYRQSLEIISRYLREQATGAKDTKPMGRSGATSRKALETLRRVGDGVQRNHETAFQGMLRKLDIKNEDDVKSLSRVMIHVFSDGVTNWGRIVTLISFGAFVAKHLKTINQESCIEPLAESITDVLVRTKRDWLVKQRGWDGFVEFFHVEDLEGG

[3] = Homo sapiens, OPM-2, 16 h, read-out: OPM-2 10% FBS IC50 IP, OPM-2 cells, 10% FBS, 16 h, CellTiter-Glo
[4] = TR-FRET, Mcl-1(171-327) / biotin-Bim (51-76)
[5] = read-out: OPM-2 10% FBS IC50 IP, OPM-2 cells, 10% FBS, 16 h, CellTiter-Glo
[6] = 0.1 nM Mcl-1(171-327), 0.05 nM biotin-Bim (51-76)
[7] = Homo sapiens, OPM-2, 16 h, read-out: OPM-2 10% FBS IC50 IP, OPM-2 cells, 10% FBS, 16 h incubation

Compound | IC50 [1, 3] [nM] | IC50 [2, 4] [nM] | IC50 [2, 6] [nM] | IC50 [1, 7] [nM] | also measured
CO[C@@]1(Cc2cc(C)ccn2)/C=C/C[C@H](C)[C@@H](C)S(=O)(=O)NC(=O)c2ccc3c(c2)N(C[C@@H]2CC[C@H]21)C[C@@]1(CCCc2cc(Cl)ccc21)CO3 [Example 100560, (1S,3′R,6′R,7′S,8′E,11′S,12′R)-6-chloro-7′-methoxy-11′,12′-dimethyl-7′-((4-methyl-2-pyridinyl)methyl)-3,4-dihydro-2H,15′H-spiro[naphthalene-1,22′-[20]oxa[13]thia[1,14]diazatetracyclo [14.7.2.0~3,6~.0~19,24~]pentacosa[8,16,18,24]tetraen]-15′-one 13′,13′-dioxide] | 2020 | 0.041 |  |  | 
C[C@@H]1[C@@H](C)C/C=C/[C@@](O)(CC(=O)N2CCCCC2)[C@@H]2CC[C@H]2CN2C[C@@]3(CCCc4cc(Cl)ccc43)COc3ccc(cc32)C(=O)NS1(=O)=O [Example 100258, (1S,3′R,6′R,7′S,8′E,11′S,12′R)-6-chloro-7′-hydroxy-11′,12′-dimethyl-7′-(2-oxo-2-(1-piperidinyl)ethyl)-3,4-dihydro-2H,15′H-spiro[naphthalene-1,22′-[20]oxa[13]thia[1,14]diazatetracyclo [14.7.2.0~3,6~.0~19,24~]pentacosa[8,16,18,24]tetraen]-15′-one 13′,13′-dioxide] |  | 0.553 |  |  | IC50 [1, 5]: 519 nM
COC[C@@]1(O)CCC[C@H](C)[C@@H](C)S(=O)(=O)NC(=O)c2ccc3c(c2)N(C[C@@H]2CC[C@H]21)C[C@@]1(CCCc2cc(Cl)ccc21)CO3 [Example 100150, (1S,3′R,6′R,7′R,11′S,12′R)-6-chloro-7′-hydroxy-7′-(methoxymethyl)-11′,12′-dimethyl-3,4-dihydro-2H,15′H-spiro[naphthalene-1,22′-[20]oxa[13]thia[1,14]diazatetracyclo [14.7.2.0~3,6~.0~19,24~]pentacosa[16,18,24]trien]-15′-one 13′,13′-dioxide] | 1430 | 1.69 |  |  | 
CO[C@@]1(CN2CCN3CCC(F)(F)C[C@H]3C2)/C=C/C[C@H](C)[C@@H](C)S(=O)(=O)NC(=O)c2ccc3c(c2)N(C[C@@H]2CC[C@H]21)C[C@@]1(CCCc2cc(Cl)ccc21)CO3 (single isomer, unassigned) [Example 289] |  |  | 0.214 |  | IC50 ([1]; read-out: OPM-2 10% FBS IC50 IP, OPM-2 cells, 10% FBS, 16 h incubation): 131 nM
CO[C@@]1(CC(=O)N2CCN(C)CC2)/C=C/C[C@H](C)[C@@H](C)S(=O)(=O)NC(=O)c2ccc3c(c2)N(C[C@@H]2CC[C@H]21)C[C@@]1(CCCc2cc(Cl)ccc21)CO3 [Example 100376, (1S,3′R,6′R,7′S,8′E,11′S,12′R)-6-chloro-7′-methoxy-11′,12′-dimethyl-7′-(2-(4-methyl-1-piperazinyl)-2-oxoethyl)-3,4-dihydro-2H,15′H-spiro[naphthalene-1,22′-[20]oxa[13]thia[1,14]diazatetracyclo [14.7.2.0~3,6~.0~19,24~]pentacosa[8,16,18,24]tetraen]-15′-one 13′,13′-dioxide] | 362 | 0.15 |  |  | 
CO[C@@]1(CN2CCN(C3COC3)CC2)/C=C/[C@H](C)[C@H](C)CS(=O)(=O)NC(=O)c2ccc3c(c2)N(C[C@@H]2CC[C@H]21)C[C@@]1(CCCc2cc(Cl)ccc21)CO3 [Example 158, (1S,3′R,6′R,7′S,8′E,10′S,11′S)-6-chloro-7′-methoxy-10′,11′-dimethyl-7′-((4-(3-oxetanyl)-1-piperazinyl)methyl)-3,4-dihydro-2H,15′H-spiro[naphthalene-1,22′-[20]oxa[13]thia[1,14]diazatetracyclo [14.7.2.0~3,6~.0~19,24~]pentacosa[8,16,18,24]tetraen]-15′-one 13′,13′-dioxide] |  |  | 0.092 | 18 | 
CCCCN1CCN(C[C@]2(OC)/C=C/C[C@H](C)[C@@H](C)S(=O)(=O)NC(=O)c3ccc4c(c3)N(C[C@@H]3CC[C@H]32)C[C@@]2(CCCc3cc(Cl)ccc32)CO4)CC1 [Example 301, (1S,3′R,6′R,7′S,8′E,11′S,12′R)-7′-((4-butyl-1-piperazinyl)methyl)-6-chloro-7′-methoxy-11′,12′-dimethyl-3,4-dihydro-2H,15′H-spiro[naphthalene-1,22′-[20]oxa[13]thia[1,14]diazatetracyclo [14.7.2.0~3,6~.0~19,24~]pentacosa[8,16,18,24]tetraen]-15′-one 13′,13′-dioxide] |  |  | 0.196 | 141 | 
CN[C@@H]1C[C@H](C)[C@@H](C)S(=O)(=O)NC(=O)c2ccc3c(c2)N(C[C@@H]2CC[C@H]2[C@@](C)(O)C1)C[C@@]1(CCCc2cc(Cl)ccc21)CO3 [Example 100066, (1S,3′R,6′R,7′S,9′R,11′S,12′R)-6-chloro-7′-hydroxy-7′,11′,12′-trimethyl-9′-(methylamino)-3,4-dihydro-2H,15′H-spiro[naphthalene-1,22′-[20]oxa[13]thia[1,14]diazatetracyclo [14.7.2.0~3,6~.0~19,24~]pentacosa[16,18,24]trien]-15′-one 13′,13′-dioxide] |  | 1.43 |  |  | IC50 [1, 5]: 3820 nM
CO[C@@]1(CN2CC(N3CCS(=O)(=O)CC3)C2)/C=C/C[C@H](C)[C@@H](C)S(=O)(=O)NC(=O)c2ccc3c(c2)N(C[C@@H]2CC[C@H]21)C[C@@]1(CCCc2cc(Cl)ccc21)CO3 [Example 279, (1S,3′R,6′R,7′S,8′E,11′S,12′R)-6-chloro-7′-((3-(1,1-dioxido-4-thiomorpholinyl)-1-azetidinyl)methyl)-7′-methoxy-11′,12′-dimethyl-3,4-dihydro-2H,15′H-spiro[naphthalene-1,22′-[20]oxa[13]thia[1,14]diazatetracyclo [14.7.2.0~3,6~.0~19,24~]pentacosa[8,16,18,24]tetraen]-15′-one 13′,13′-dioxide] |  |  | 0.084 | 453 | 
CNC[C@]1(OC)/C=C/C[C@H](C)[C@@H](C)S(=O)(=O)NC(=O)c2ccc3c(c2)N(C[C@@H]2CC[C@H]21)C[C@@]1(CCCc2cc(Cl)ccc21)CO3 [Example 65, (1S,3′R,6′R,7′S,8′E,11′S,12′R)-6-chloro-7′-methoxy-11′,12′-dimethyl-7′-((methylamino)methyl)-3,4-dihydro-2H,15′H-spiro[naphthalene-1,22′-[20]oxa[13]thia[1,14]diazatetracyclo [14.7.2.0~3,6~.0~19,24~]pentacosa[8,16,18,24]tetraen]-15′-one 13′,13′-dioxide] |  |  | 0.451 | 1500 | 
CO[C@@]1(CCCO)/C=C/C[C@H](C)[C@@H](C)S(=O)(=O)NC(=O)c2ccc3c(c2)N(C[C@@H]2CC[C@H]21)C[C@@]1(CCCc2cc(Cl)ccc21)CO3 [Example 100177, (1S,3′R,6′R,7′S,8′E,11′S,12′R)-6-chloro-7′-(3-hydroxypropyl)-7′-methoxy-11′,12′-dimethyl-3,4-dihydro-2H,15′H-spiro[naphthalene-1,22′-[20]oxa[13]thia[1,14]diazatetracyclo [14.7.2.0~3,6~.0~19,24~]pentacosa[8,16,18,24]tetraen]-15′-one 13′,13′-dioxide] | 259 | 0.258 |  |  | 
CC(C)O[C@]1(CN2CCN(C(C)C)[C@H](C)C2)/C=C/C[C@H](C)[C@@H](C)S(=O)(=O)NC(=O)c2ccc3c(c2)N(C[C@@H]2CC[C@H]21)C[C@@]1(CCCc2cc(Cl)ccc21)CO3 [Example 51] |  |  | 0.072 | 99 | 
